From publication PMC6072251 (ACS Omega, 2018)
Converted amounts (≈) assume the structure as drawn. Where two headings read alike, the source gives them in different places.

Experiments:
S. mutans growth = S. mutans growth inhibition assay; format: cell-based, Streptococcus mutans UA159; conditions: Streptococcus mutans, read-out: Growth MIC50
[1] = test system: S. mutans UA159-induced dental caries; experiment: Rat model of dental caries; format: in vivo, Fischer 344 rats; conditions: for bacterial colonization (cfu/mandible) / body weight over the course of the study: 100 μM twice daily for 4 weeks; for bacterial colonization (cfu/mandible): compared with control group treated with water; for body weight over the course of the study: in comparison with the control group; for oral tissue (mucosal and gingival tissues) at sacrifice: treated vs nontreated rats
Gtfs = experiment: Zymogram assay of Gtf enzymatic activity; format: biochemical, S. mutans UA159; conditions: compared to DMSO control
S. mutans = experiment: Cell viability / growth of S. mutans; format: cell-based
S. mutans biofilm = S. mutans biofilm formation and inhibition assay; format: cell-based, Streptococcus mutans UA159; conditions: for IC50: Streptococcus mutans
S. gordonii = experiment: Growth of commensal S. gordonii; format: cell-based, Streptococcus gordonii DL1
S. sanguinis = experiment: Growth of commensal S. sanguinis; format: cell-based, Streptococcus sanguinis SK36
S. mutans colonization = experiment: Sucrose-dependent drosophila colonization model; format: in vivo; conditions: 50 μM, feeding assay, after 7 days of infection

Row | Structure (SMILES) | MIC50 (S. mutans growth) [µM] | bacterial colonization (cfu/mandible) [1] | body weight over the course of the study [1] | oral tissue (mucosal and gingival tissues) at sacrifice [1] | glucan production / Gtf inhibition in zymogram assay (in words) (Gtfs) | viability of the biofilms and the planktonic cells (S. mutans; S. mutans) | inhibition of cell viability (S. mutans; S. mutans, at 400 μM) [%] | inhibition at 52 µM (S. mutans; Streptococcus mutans, read-out: growth inhibited) [%] | IC50 (S. mutans biofilm; read-out: Biofilm IC50, S. mutans biofilm, NI: no inhibition) [µM] | decrease of cell density (S. gordonii; S. gordonii, at 400 μM) | inhibition at 52 µM (S. gordonii; Streptococcus gordonii, read-out: growth inhibited) [%] | decrease of cell density (S. sanguinis; S. sanguinis, at 400 μM) | inhibition at 52 µM (S. sanguinis; Streptococcus sanguinis, read-out: growth inhibited) [%] | fluorescence in the guts of flies fed Gfp-tagged S. mutans (S. mutans colonization) | IC50 (S. mutans biofilm; read-out: Biofilm IC50) [µM] | Selectivity (S. mutans biofilm; biofilm inhibition over growth inhibition of S. mutans)
1 | Oc1ccc(/C=C/c2cc(O)cc(O)c2)cc1 [Compound 7, resveratrol] | 546 ± 15.9 (≈ 125 µg/mL) | not statistically significant | did not lose weight | no obvious differences | marginal inhibition |  |  |  |  |  |  |  |  |  |  | 
2 | Oc1cc(O)cc(/C=C/c2ccc(O)c(O)c2)c1 [Compound 8, piceatannol] | 564 ± 37.8 (≈ 138 µg/mL) | not statistically significant | did not lose weight | no obvious differences | greatly reduced glucan production | not significantly impacted | 37 | < 10 | 52 ± 6 | 15–18% | < 10 | 15–18% | < 10 | significant decrease in fluorescence |  | 
3 | O=C(/C=C/c1ccc(O)c(O)c1)O[C@@H]1C[C@](O)(C(=O)O)C[C@@H](O)[C@H]1O [Compound 10] | 1720 ± 53 (≈ 611 µg/mL) |  |  |  |  |  |  |  |  |  |  |  |  |  | 518 ± 85 | 3.3
